According to publication PMC6136660 (Steroids, 2018):
Read-outs that look alike come from different tables or passages of the source.

Assays:
[1] = tested on: adrenal axis (first-in-morning serum cortisol); test: First-in-morning serum cortisol (adrenal suppression biomarker), MAD; assay type: in vivo
Procedure: (§1) All biomarkers were analyzed using standard immunoassays by PRA.
Adrenal suppression is the consequence of a negative feedback loop between high circulating cortisol and pharmacological glucocorticoids and adrenal function, leading to loss of responsiveness of the adrenal cortex to ACTH. Adrenal suppression can be seen both acutely (hours after a single dose of pharmacological glucocorticoids), and chronically. Chronic treatment with glucocorticoids leads to chronic deficiencies in multiple steroidal hormones, including cortisol, testosterone, 17-hydroxyprogesterone, corticosterone, and 11-deoxycortisol. The resulting hormonal imbalance puts patients at increased risk for a series of safety concerns. One is adrenal crisis (inability to mount a cortisol stress response after trauma, severe illness, or surgery, with ensuring risk for shock and death). Other safety concerns in children include delay of puberty and growth stunting. Adrenal suppression can be measured with first-in-morning serum cortisol, reflective of the endogenous diurnal cortisol peak pre-awakening. Measurement of first-in-morning cortisol 24 h after the last drug dose indicates whether the drug has suppressed the normal diurnal cortisol response.
First in morning serum cortisol levels were measured in all Phase 1 MAD subjects, at baseline prior to first administration of vamorolone or placebo, 24 h after the first dose (acute suppression), and 24 h after 14 days of daily dosing (chronic suppression) (Fig. 4). The two placebo subjects from each dose group were combined into the same panel. […] At 9.0 mg/kg/day, there was a decline in morning cortisol in all subjects, with 1 subject below the 3.6 µg/dL after first dose, and 3 of 6 subjects after two weeks of daily dosing. […] One subject stopped dosing due to mild elevation of liver enzymes, and their morning cortisol returned to normal levels within a few days of cessation of dosing (Fig. 4). Direct head-to-head comparisons to prednisone-treated subjects were not done in this Phase 1 trial, but approximate comparisons can be done to published literature. Both Fleishaker et al. and we tested serum cortisol 24 h after the first dose of drug. Fleishaker et al. studied doses of 2.5, 5, 10, 20 mg, 40 mg, and 60 mg, with an average weight of subjects of 80 kg. […] For vamorolone, the dose groups showing decreases in morning cortisol 24 h after the initial dose were 3 mg/kg (9 µg/dL cortisol), 9 mg/kg (6 µg/dL cortisol), and 20 mg/kg (4 µg/dL cortisol). […] Two week prednisone treatment data for morning cortisol was not published.

[2] = Phase 1 multiple ascending dose (MAD) pharmacokinetics, 14 days once daily; assay type: in vivo, human; conditions: for CL/F: human, plasma, oral, read-out: CL/F, range of geometric mean values
Procedure: The MAD part of the study was initiated after a review of safety and PK data from SAD cohorts 1 to 6. In the MAD part, 4 cohorts containing 8 subjects each were randomized to receive vamorolone or placebo, in a 3:1 ratio, once daily (QD) for 14 days. The duration of dosing in the MAD part was determined based on the PK data from the SAD part. In each cohort, 3 sentinel subjects were administered vamorolone or placebo, in a 2:1 ratio.
The planned dose levels for the MAD part were 1.0 mg/kg (Cohort 1), 3.0 mg/kg (Cohort 2), 9.0 mg/kg (Cohort 3), and 20.0 mg/kg (Cohort 4) or until the maximum tolerated dose (MTD) was identified.
Daily doses of vamorolone (1.0, 3.0, 9.0 and 20.0 mg/kg/day) were given in the morning in a fasted state, daily for 14 days, and PK determined on day 1 (after single dose) and day 14 (after the 14th dose). Consistent with the SAD, mean plasma vamorolone concentrations and dose-related PK parameters increased in a dose related manner (Fig. 3). Log-log plots of the individual subject Cmax and AUC (inf) were linear. Although the slopes ranged from 0.827 to 0.898, the deviation from 1.0 may be a consequence of between-subject variability and not indicative of a less than dose-proportional increase in exposure.

osteocalcin = test: Serum osteocalcin (bone formation biomarker), MAD; assay type: in vivo, human; conditions: for Osteocalcin: mean±SEM
Procedure: as §1
Pharmacological glucocorticoids cause bone side effects including osteopenia and bone fragility. Bone turnover markers bridged to later bone morbidities include osteocalcin for bone formation, and CTX1 (C-terminal telopeptide of collagen 1) for bone absorption. These biomarkers predict phenotypes of osteopenia and used in clinical trials to monitor bone side effects of treatments. […] (Supplemental Fig. 2). In the vamorolone Phase 1 trial, serum osteocalcin levels were assayed prior to dosing (Day 1 predose), 8 h after initial dose (Day 1), pre-dose on day 14 of daily dosing, 8 h after the day 14 (last) dose, and during recovery days 15 and 17.

Question: Which “subjects with morning cortisol below 3.6 µg/dL (adrenal suppression)” value (“subjects” below) ([1]; 9.0 mg/kg/day, after first dose, n = 6) does the source give for C[C@@H]1C[C@H]2[C@@H]3CCC4=CC(=O)C=C[C@]4(C)C3=CC[C@]2(C)[C@@]1(O)C(=O)CO [vamorolone] here?
Answer: Its value is 1 subjects.

Question: And the “subjects” value ([1]; 9.0 mg/kg/day, after two weeks of daily dosing)?
Answer: Its value is 3 of 6.

Question: And the “subjects” value ([1]; 20.0 mg/kg/day, after a single dose)?
Answer: The value was 4 of 6.

Question: And the “subjects” value ([1]; 20.0 mg/kg/day, after two weeks of dosing)?
Answer: The value was 5/5.

Question: And the adrenal suppression ([1]; 1.0 or 3.0 mg/kg/day dose groups, acute and 14 days)?
Answer: The adrenal suppression was “No evidence of adrenal suppression”.

Question: And the “difference in potency for acute adrenal suppression (prednisone > vamorolone)” value ([1]; 24 h after the first dose, vamorolone data vs published prednisone data (ref 6))?
Answer: Its value is 10 fold.

Question: And the “adrenal suppression potency relative to traditional glucocorticoids” value ([1]; seen at 9.0 and 20.0 mg/kg/day)?
Answer: Its value is ~ 1%.

Question: What about the “drug accumulation between daily doses” value ([2]; Day 1 vs Day 14, once daily 14 days) of the same compound?
Answer: Its value is “essentially no drug accumulation between doses”.

Question: And the CL/F ([2]; MAD Day 1, across 1-20 mg/kg/day)?
Answer: Its CL/F is 1.42 to 2.02 L/h/kg.

Question: What about the CL/F ([2]; MAD Day 14, across 1-20 mg/kg/day) of the same compound?
Answer: The CL/F was 1.26 to 2.15 L/h/kg.

Question: What about the Osteocalcin (osteocalcin; MAD 1.0 mg/kg, Day 1 (8 h after initial dose)) of the same compound?
Answer: The Osteocalcin was 27.4 ± 9.3 ng/mL.

Question: What about the Osteocalcin (osteocalcin; MAD 1.0 mg/kg, Day 1 (predose), baseline) of the same compound?
Answer: Its Osteocalcin is 33.2 ± 11.5 ng/mL.

Question: And the Osteocalcin (osteocalcin; MAD 1.0 mg/kg, Day 14 (8 h after last dose))?
Answer: The Osteocalcin was 21.0 ± 7.8 ng/mL.

Question: And the Osteocalcin (osteocalcin; MAD 1.0 mg/kg, Day 14 (predose))?
Answer: Its Osteocalcin is 30.3 ± 9.7 ng/mL.

Question: And the Osteocalcin (osteocalcin; MAD 1.0 mg/kg, Day 15 recovery)?
Answer: The Osteocalcin was 28.8 ± 9.3 ng/mL.

Question: And the Osteocalcin (osteocalcin; MAD 1.0 mg/kg, Day 17 recovery)?
Answer: Its Osteocalcin is 25.9 ± 8.0 ng/mL.

Question: And the Osteocalcin (osteocalcin; MAD 3.0 mg/kg, Day 1 (8 h after initial dose))?
Answer: The Osteocalcin was 13.6 ± 11.5 ng/mL.

Question: What about the Osteocalcin (osteocalcin; MAD 3.0 mg/kg, Day 1 (predose), baseline) of the same compound?
Answer: Its Osteocalcin is 13.7 ± 11.6 ng/mL.

Question: What about the Osteocalcin (osteocalcin; MAD 3.0 mg/kg, Day 14 (8 h after last dose)) of the same compound?
Answer: Its Osteocalcin is 13.0 ± 11.0 ng/mL.

Question: And the Osteocalcin (osteocalcin; MAD 3.0 mg/kg, Day 14 (predose))?
Answer: The Osteocalcin was 17.1 ± 13.3 ng/mL.

Question: And the Osteocalcin (osteocalcin; MAD 3.0 mg/kg, Day 15 recovery)?
Answer: The Osteocalcin was 16.1 ± 12.5 ng/mL.

Question: What about the Osteocalcin (osteocalcin; MAD 3.0 mg/kg, Day 17 recovery) of the same compound?
Answer: Its Osteocalcin is 13.9 ± 9.5 ng/mL.

Question: What about the Osteocalcin (osteocalcin; MAD 9.0 mg/kg, Day 1 (8 h after initial dose)) of the same compound?
Answer: The Osteocalcin was 20.4 ± 4.7 ng/mL.

Question: And the Osteocalcin (osteocalcin; MAD 9.0 mg/kg, Day 1 (predose), baseline)?
Answer: Its Osteocalcin is 32.9 ± 8.6 ng/mL.

Question: What about the Osteocalcin (osteocalcin; MAD 9.0 mg/kg, Day 14 (8 h after last dose)) of the same compound?
Answer: Its Osteocalcin is 18.7 ± 4.3 ng/mL.

Question: And the Osteocalcin (osteocalcin; MAD 9.0 mg/kg, Day 14 (predose))?
Answer: Its Osteocalcin is 24.0 ± 6.4 ng/mL.

Question: And the Osteocalcin (osteocalcin; MAD 9.0 mg/kg, Day 15 recovery)?
Answer: The Osteocalcin was 26.7 ± 5.2 ng/mL.

Question: What about the Osteocalcin (osteocalcin; MAD 9.0 mg/kg, Day 17 recovery) of the same compound?
Answer: Its Osteocalcin is 33.5 ± 7.2 ng/mL.

Question: And the Osteocalcin (osteocalcin; MAD 20.0 mg/kg, Day 1 (8 h after initial dose))?
Answer: Its Osteocalcin is 20.2 ± 4.6 ng/mL.

Question: And the Osteocalcin (osteocalcin; MAD 20.0 mg/kg, Day 1 (predose), baseline)?
Answer: The Osteocalcin was 31.5 ± 6.7 ng/mL.

Question: What about the Osteocalcin (osteocalcin; MAD 20.0 mg/kg, Day 14 (8 h after last dose)) of the same compound?
Answer: The Osteocalcin was 17.0 ± 3.7 ng/mL.

Question: And the Osteocalcin (osteocalcin; MAD 20.0 mg/kg, Day 14 (predose))?
Answer: Its Osteocalcin is 32.8 ± 7.6 ng/mL.

Question: And the Osteocalcin (osteocalcin; MAD 20.0 mg/kg, Day 15 recovery)?
Answer: Its Osteocalcin is 27.8 ± 5.9 ng/mL.

Question: And the Osteocalcin (osteocalcin; MAD 20.0 mg/kg, Day 17 recovery)?
Answer: Its Osteocalcin is 34.6 ± 6.1 ng/mL.

Question: What about the “osteocalcin and CTX1 vs placebo” value (osteocalcin; any MAD dose group, through 20 mg/kg/day) of the same compound?
Answer: The value was “no significant changes”.
